# Results reported in US8959984B2, “Proteome-wide quantification of small molecule binding to cellular target proteins” (priority 2007, dated 2015).
# Where two headings read alike, the source gives them in different places.
# Columns and labels:
# [1] = molecular target: T1, GAK (Homo sapiens, UniProt O14976); assay: binding to immobilized V16742 (IVA1/IVA2, HeLa lysate, MS)
# T1 sequence (O14976 1-1311): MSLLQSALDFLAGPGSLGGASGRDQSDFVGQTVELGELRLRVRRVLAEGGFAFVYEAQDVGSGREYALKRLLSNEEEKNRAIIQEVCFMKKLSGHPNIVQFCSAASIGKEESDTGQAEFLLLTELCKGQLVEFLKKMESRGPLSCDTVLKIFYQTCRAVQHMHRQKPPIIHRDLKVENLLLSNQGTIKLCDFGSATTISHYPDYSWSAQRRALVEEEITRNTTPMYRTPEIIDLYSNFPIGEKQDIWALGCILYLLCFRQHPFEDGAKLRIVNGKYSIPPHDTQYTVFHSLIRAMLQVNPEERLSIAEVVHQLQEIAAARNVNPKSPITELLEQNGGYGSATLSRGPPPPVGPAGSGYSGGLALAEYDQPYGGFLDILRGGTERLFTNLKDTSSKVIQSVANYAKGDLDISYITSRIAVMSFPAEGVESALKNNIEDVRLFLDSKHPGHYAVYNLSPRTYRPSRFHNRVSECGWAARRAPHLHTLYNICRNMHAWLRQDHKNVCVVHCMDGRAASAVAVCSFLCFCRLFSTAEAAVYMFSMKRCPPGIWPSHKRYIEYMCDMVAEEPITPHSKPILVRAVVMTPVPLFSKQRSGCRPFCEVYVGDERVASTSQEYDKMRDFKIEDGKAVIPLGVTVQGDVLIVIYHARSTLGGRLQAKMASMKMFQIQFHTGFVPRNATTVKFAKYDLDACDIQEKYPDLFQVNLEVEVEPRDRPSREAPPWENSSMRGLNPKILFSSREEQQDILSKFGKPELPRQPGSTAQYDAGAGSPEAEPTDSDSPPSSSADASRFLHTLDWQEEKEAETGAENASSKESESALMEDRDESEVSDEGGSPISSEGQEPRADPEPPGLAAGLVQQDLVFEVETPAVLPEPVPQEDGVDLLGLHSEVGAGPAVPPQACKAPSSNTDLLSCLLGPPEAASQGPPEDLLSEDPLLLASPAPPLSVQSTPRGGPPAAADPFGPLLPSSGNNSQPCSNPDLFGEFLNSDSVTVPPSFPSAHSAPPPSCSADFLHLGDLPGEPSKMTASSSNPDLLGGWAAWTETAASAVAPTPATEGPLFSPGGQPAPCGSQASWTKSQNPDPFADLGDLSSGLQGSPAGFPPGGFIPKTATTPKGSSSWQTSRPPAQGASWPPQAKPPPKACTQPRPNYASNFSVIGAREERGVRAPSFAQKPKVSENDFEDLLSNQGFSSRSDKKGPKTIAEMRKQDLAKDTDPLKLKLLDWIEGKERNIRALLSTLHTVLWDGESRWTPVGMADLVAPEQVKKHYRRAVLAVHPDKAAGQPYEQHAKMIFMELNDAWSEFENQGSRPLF
# [2] = molecular target: BRD3 (Homo sapiens, UniProt Q15059); assay: as above
# [3] = molecular target: RPL7A (Homo sapiens, UniProt P62424)
# [4] = molecular target: RPL27A (Homo sapiens, UniProt P46776)
# [5] = test system: PITSLRE; assay: binding to immobilized V16742 (IVA1/IVA2, HeLa lysate, MS); set-up: species or system human
# [6] = molecular target: T2, p38a (Homo sapiens, UniProt Q16539); assay: as above; settings: p38a (IPI00221141.2)
# T2 construct: endogenous in cells; host or cells: HeLa S3
# [7] = average of two experiments, read-out: Kd Avg
# Sequence of BRD3 (Q15059 whole entry): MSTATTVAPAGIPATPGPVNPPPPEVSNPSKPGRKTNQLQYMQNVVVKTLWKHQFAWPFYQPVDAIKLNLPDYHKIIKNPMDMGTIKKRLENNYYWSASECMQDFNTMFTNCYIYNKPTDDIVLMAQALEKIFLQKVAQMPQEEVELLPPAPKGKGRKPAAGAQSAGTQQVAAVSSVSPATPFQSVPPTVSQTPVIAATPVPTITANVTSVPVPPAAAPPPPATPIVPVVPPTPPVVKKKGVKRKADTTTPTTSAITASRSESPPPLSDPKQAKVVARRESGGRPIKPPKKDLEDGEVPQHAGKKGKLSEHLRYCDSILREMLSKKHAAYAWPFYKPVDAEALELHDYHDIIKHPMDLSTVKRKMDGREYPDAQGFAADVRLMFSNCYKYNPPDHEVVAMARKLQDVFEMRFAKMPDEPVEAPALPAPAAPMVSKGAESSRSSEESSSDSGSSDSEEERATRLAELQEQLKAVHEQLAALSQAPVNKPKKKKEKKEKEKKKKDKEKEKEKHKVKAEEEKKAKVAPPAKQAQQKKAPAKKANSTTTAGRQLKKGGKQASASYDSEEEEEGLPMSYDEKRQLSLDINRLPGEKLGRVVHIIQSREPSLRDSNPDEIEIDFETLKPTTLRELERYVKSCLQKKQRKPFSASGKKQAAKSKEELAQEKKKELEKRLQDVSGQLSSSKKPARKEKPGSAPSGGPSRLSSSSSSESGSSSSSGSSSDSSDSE
# T2 sequence (Q16539 whole entry): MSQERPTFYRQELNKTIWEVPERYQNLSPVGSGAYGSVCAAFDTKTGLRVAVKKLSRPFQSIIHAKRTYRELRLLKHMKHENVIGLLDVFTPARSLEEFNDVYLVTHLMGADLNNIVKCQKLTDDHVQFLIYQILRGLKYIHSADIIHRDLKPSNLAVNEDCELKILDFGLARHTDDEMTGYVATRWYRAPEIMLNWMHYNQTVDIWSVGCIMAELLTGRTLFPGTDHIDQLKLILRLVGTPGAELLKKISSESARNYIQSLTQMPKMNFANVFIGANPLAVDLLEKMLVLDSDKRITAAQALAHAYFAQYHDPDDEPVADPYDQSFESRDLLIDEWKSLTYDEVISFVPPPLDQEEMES
compound,measurement,setting,value
CC(C)n1c(=O)ccc2cnc(Nc3ccc(OCCN)cc3)nc21 [compound 16742],Percent bound at 1.87 μM 16742 conc,[1]; EXPERIMENT 1,8.35%
same,Percent bound at 8.74 μM 16742 conc,[1]; EXPERIMENT 1,29.77%
same,Percent bound at 52 μM 16742 conc,[1]; EXPERIMENT 1,69.07%
same,Kd,"[1]; EXPERIMENT 1, read-out: Kd",21.9 µM
same,Percent bound at 1.87 μM 16742 conc,[1]; EXPERIMENT 2,6.15%
same,Percent bound at 8.74 μM 16742 conc,[1]; EXPERIMENT 2,27.34%
same,Percent bound at 52 μM 16742 conc,[1]; EXPERIMENT 2,63.94%
same,Kd,"[1]; EXPERIMENT 2, read-out: Kd",26.7 µM
same,Kd,[1]; read-out: Kd Avg,24.3 µM
same,Percent bound at 1.87 μM 16742 conc,[2]; EXPERIMENT 1,0.00%
same,Percent bound at 8.74 μM 16742 conc,[2]; EXPERIMENT 1,0.00%
same,Percent bound at 52 μM 16742 conc,[2]; EXPERIMENT 1,71.55%
same,Kd,"[2]; EXPERIMENT 1, read-out: Kd",37 µM
same,Percent bound at 1.87 μM 16742 conc,[2]; EXPERIMENT 2,8.24%
same,Percent bound at 8.74 μM 16742 conc,[2]; EXPERIMENT 2,11.86%
same,Percent bound at 52 μM 16742 conc,[2]; EXPERIMENT 2,65.82%
same,Kd,"[2]; EXPERIMENT 2, read-out: Kd",33.9 µM
same,Kd,[2]; read-out: Kd Avg,35.4 µM
COc1cc2ncnc(Nc3ccc(F)c(Cl)c3)c2cc1OCCCN1CCOCC1 [gefitinib],rAVERAGE (10 nM/0 nM Gef.),[3],0.92
same,rAVERAGE (100 nM/0 nM Gef.),[3],0.88
same,rAVERAGE (1000 nM/0 nM Gef.),[3],0.59
same,rAVERAGE (10000 nM/0 nM Gef.),[3],0.79
same,rAVERAGE (10 nM/0 nM Gef.),[4],0.87
same,rAVERAGE (100 nM/0 nM Gef.),[4],1.05
same,rAVERAGE (1000 nM/0 nM Gef.),[4],0.81
same,rAVERAGE (10000 nM/0 nM Gef.),[4],1.03
CC(C)n1c(=O)ccc2cnc(Nc3ccc(OCCN)cc3)nc21 [V16742],Percent bound at various 16742 conc,"[5]; Experiment 1, 1.87 μM 16742",1.13%
same,Percent bound at various 16742 conc,"[5]; Experiment 1, 8.74 μM 16742",12.03%
same,Percent bound at various 16742 conc,"[5]; Experiment 1, 52 μM 16742",49.06%
same,Kd,"[5]; Experiment 1, read-out: Kd",56.1 µM
same,Percent bound at various 16742 conc,"[5]; Experiment 2, 1.87 μM 16742",2.00%
same,Percent bound at various 16742 conc,"[5]; Experiment 2, 8.74 μM 16742",4.78%
same,Percent bound at various 16742 conc,"[5]; Experiment 2, 52 μM 16742",46.71%
same,Kd,"[5]; Experiment 2, read-out: Kd",66.7 µM
same,Kd,[5]; [7],61.4 µM
same,Percent bound at various 16742 conc,"[6]; Experiment 1, 1.87 μM 16742",4.98%
same,Percent bound at various 16742 conc,"[6]; Experiment 1, 8.74 μM 16742",6.72%
same,Percent bound at various 16742 conc,"[6]; Experiment 1, 52 μM 16742",49.78%
same,Kd,"[6]; Experiment 1, read-out: Kd",58.3 µM
same,Percent bound at various 16742 conc,"[6]; Experiment 2, 1.87 μM 16742",3.02%
same,Percent bound at various 16742 conc,"[6]; Experiment 2, 8.74 μM 16742",1.43%
same,Percent bound at various 16742 conc,"[6]; Experiment 2, 52 μM 16742",24.52%
same,Kd,"[6]; Experiment 2, read-out: Kd",167 µM
same,Kd,[6]; [7],113 µM
